# Like-named read-outs stand apart in the source and are kept apart here.
# Experiments:
# [1] = test system: CF patient strain DNA00703; test: MIC broth dilution, growth by turbidity/OD 595 nm; format: cell-based, M. abscessus; details: for MIC: Mycobacteroides abscessus
# Method: (§1) Mycobacteria strains were used to determine MICs of BisEDT and amikacin. Strains included cystic fibrosis patient isolates from National Jewish Hospital. A range of high dose to low dose of antibiotics was used to determine bacteria susceptibility. M. avium strain 104, M. avium strain 3388, and CF patient strain DNA00133 were grown to log phase (7 days) while M. abscessus strain 19977, CF patient strain DNA00703, and CF patient strain DNA01715 achieved log phase (4 days) on 7H10 middlebrook media plates supplemented with 10% OADC (Oleic acid, Albumin, Dextrose, Catalase). […] For BisEDT, two types of compound physical states were tested. First, BisEDT was solubilized in DMSO (furthermore labeled soluble BisEDT). Second, BisEDT was made in suspension to mimic in vivo studies (furthermore labeled insoluble BisEDT). […] Control tubes containing no antibiotics were also included for each antibiotic tested. Inoculums of […] bacteria for each strain was measured with optical density (O.D.) at 595 nm. 10 μl of these inoculums were added to each antibiotic tube and incubated in a shaking incubator at 37° C. and 200 rpm. Slow growing stains were measured for growth after 10 days incubation while fast growing strains were incubated for 5 days. After incubation, 100 μl from each tube was pulled and placed in a 96-well plate for O.D. reading. Turbidity determined sensitive, intermediate, or resistant bacteria.
# [2] = test system: CF patient strain DNA01715; test: MIC broth dilution, growth by turbidity/OD 595 nm; format: cell-based, M. abscessus; details: for MIC: Mycobacteroides abscessus
# Method: as §1
# [3] = test system: M. abscessus cystic fibrosis patient strain 00703 in THP-1 macrophages; test: Mycobacterial survival (CFU) in infected THP-1 macrophages; format: cell-based; details: CF patient strain 00703; after 3 days; drugs at MIC
# Method: (§2) THP-1 macrophages were differentiated with 50 ng/ml PMA for 24 hours, followed by 24 hours in media prior to infection. Differentiated THP-1 macrophages were either infected with M. avium strains or M. abscessus strains for 1 hour with an multiplicity of infection (MOI) of 5 or uninfected. Cells were washed twice, followed by 1 hour of antibiotic treatment with 200 μg/ml of amikacin to remove extracellular bacteria. After the antibiotic step, cells were washed once more and BisEDT (BIZ) or amikacin was added once to selected wells (see in vitro doses below).
# (§3) The treatments included: vehicle, amikacin, Soluble BisEDT (S Biz), Insoluble BisEDT (I Biz), and amikacin+BisEDT. The time points for sample preparation were 72 h for M. abscessus strains and 4- and 7-days post infection for M. avium strains. At the indicated timepoints cell media was removed and replaced with 400 ul of 0.1% triton x-100 in H2O for lysis. Wells were pipetted 25 times to disrupt cells then diluted and plated for CFU enumeration.
# [4] = test system: M. abscessus cystic fibrosis patient strain 01715 in THP-1 macrophages; test: as above; format: cell-based; details: CF patient strain 01715; after 3 days; drugs at MIC
# Method: as §2, §3
# [5] = test system: M. abscessus strain 19977 in THP-1 macrophages; test: as above; format: cell-based; details: after 3 days, drugs at MIC
# Method: as §2, §3
# [6] = test system: M. avium strain 104 (MAH 104) in THP-1 macrophages; test: as above; format: cell-based; details: 4-day and 7-day, drugs at MIC
# Method: as §2, §3
# M. abscessus MABS1 = test: MIC (Table 8); format: cell-based; details: Mycobacteroides abscessus
# M. abscessus MABS2 = test: MIC (Table 8); format: cell-based; details: Mycobacteroides abscessus
# M. abscessus MABS9 = test: MIC (Table 8); format: cell-based; details: Mycobacteroides abscessus
# M. abscessus MABS11 = test: MIC (Table 8); format: cell-based; details: Mycobacteroides abscessus
# [7] = test system: M. abscessus biofilm (six clinical isolates); test: MBEC assay, summary over six clinical isolates; format: cell-based; details: at high concentrations (amikacin, clarithromycin: apart from MABS4)
# From the text: In this study the MBEC assay was followed as described in the Innovotech Procedural Manual, version 2.1 with minor modifications to assess the antibiofilm activity of the antimicrobial compounds under investigation. The MBEC value refers to the Minimum Biofilm Eradication Concentration of each antimicrobial for each strain. The MBEC value is defined as the minimum antibiotic concentration where the optical density (OD) value at recovery is less than 10% of the control OD value and there is no growth observed with visual examination of the wells.
# Step 1: Inoculation. For resuscitation, all strains were streaked on TSA plates, except for the mycobacteria which were streaked on 7H10 media, from the frozen stocks, and grew overnight at 37° C. (Table 6). From the plate, one colony was picked for inoculation in organism specific medium (OSM) and grown in a shaker incubator at 37° C. at 225 RPM until mid-log phase (OD 0.2-0.8). At mid log phase the culture was diluted in OSM medium (Table 6) to an OD of 0.05. 150 μL of it were aliquoted in each corresponding well in a 96-well MBEC plate (inoculation plate). Subsequently, the MBEC plates were incubated static at 37° C. for the appropriate time for each species (Table 7). During incubation, biofilm formed on the pegs.
# Step 2: Challenge. Following incubation, the peg lid with the biofilm was washed twice in PBS and placed on a second 96-well plate with 200 μl of antibiotic dilutions (challenge plate). The challenge plate was then incubated at 37° C. for 18 h to allow exposure of the biofilm to antibiotics.
# Step 3: Recovery. […] The recovery of resistant cells was assessed by an end-point measurement of the optical density at 600 nm (OD600) for each well with a plate reader (FIG. 4).
# This is possibly, in part, due to the variable clumping of the cells observed in the biofilm biomass on the pegs. The clumping of the cells also impacted the OD readings. […] For replicate experiments with variable results, the final MBEC values were determined based on the higher MBEC concentration observed among the replicates.
smiles,measurement,setting,value
NCC[C@H](O)C(=O)N[C@@H]1C[C@H](N)[C@@H](O[C@H]2O[C@H](CN)[C@@H](O)[C@H](O)[C@H]2O)[C@H](O)[C@H]1O[C@H]1O[C@H](CO)[C@@H](O)[C@H](N)[C@H]1O [amikacin],Sensitivity phenotype (R/I/S),[1]; 1 μg/mL,R
same,Sensitivity phenotype (R/I/S),[1]; 2 μg/mL,R
same,Sensitivity phenotype (R/I/S),[1]; 4 μg/mL,R
same,Sensitivity phenotype (R/I/S),[1]; 8 μg/mL,R
same,Sensitivity phenotype (R/I/S),[1]; 16 μg/mL,I
same,Sensitivity phenotype (R/I/S),[1]; 32 μg/mL,I
same,Sensitivity phenotype (R/I/S),[1]; 64 μg/mL,S
same,Sensitivity phenotype (R/I/S),[1]; 128 μg/mL,S
same,MIC,"[1]; M. abscessus strain 00703 (Table 4), read-out: MIC determined for the strain, used for treatment of infected macrophages",64 µg/mL
same,MIC,"[1]; M. abscessus strain from patient 00703, read-out: MIC",64 µg/mL
same,Sensitivity phenotype (R/I/S),[2]; 1 μg/mL,R
same,Sensitivity phenotype (R/I/S),[2]; 2 μg/mL,R
same,Sensitivity phenotype (R/I/S),[2]; 4 μg/mL,R
same,Sensitivity phenotype (R/I/S),[2]; 8 μg/mL,I
same,Sensitivity phenotype (R/I/S),[2]; 16 μg/mL,S
same,Sensitivity phenotype (R/I/S),[2]; 32 μg/mL,S
same,Sensitivity phenotype (R/I/S),[2]; 64 μg/mL,S
same,Sensitivity phenotype (R/I/S),[2]; 128 μg/mL,S
same,MIC,"[2]; M. abscessus strain 01715 (Table 4), read-out: MIC determined for the strain, used for treatment of infected macrophages",16 µg/mL
same,MIC,"[2]; M. abscessus strain from patient 01715, read-out: MIC",16 µg/mL
same,"mycobacterial survival (CFU, bacterial load) in THP-1 macrophages, in words",[3],bacteriostatic
same,"mycobacterial survival (CFU, bacterial load) in THP-1 macrophages, in words",[4],bacteriostatic
same,"mycobacterial survival (CFU, bacterial load) in THP-1 macrophages, in words",[5],"somewhat reduced CFU counts from initial infection rates, but the difference was not significant"
same,"mycobacterial survival (CFU, bacterial load) in THP-1 macrophages, in words",[6],greatly reduced the bacteria load
same,MIC,M. abscessus MABS1,16 µg/mL
same,MIC,M. abscessus MABS2,32 µg/mL
same,MIC,M. abscessus MABS9,8 µg/mL
same,MIC,M. abscessus MABS11,1 µg/mL
same,"biofilm susceptibility, in words",[7],resistance
